Values quoted from earlier work, collected in patent US7015199B1, “Treatment of psoriasis through down-regulation of the EGF-receptor with topically-applied EGF” (priority 2000, dated 2006).

Test system: EGF-dependent cancer cell lines
Conditions: high levels of EGF, in-vitro

Substance: epidermal growth factor (NSDSECPLSHDGYCLHDGVCMYIEALDKYACNCVVGYIGERCQYRDLKWWELR; Epidermal growth factor; UniProt P01133 971-1023, looked up) [EGF, epidermal growth factor, ligand of the EGF receptor]
- growth of EGF-dependent cancer cell lines: inhibited the growth
